From patent US20090054333A1, “Peptide inhibitors of cyclin-dependent kinase activity and uses thereof” (priority 2006, published 2009)
“Also recorded” adds a separate entry of the source.

Target: cdk2
Assay: in vitro cdk2 kinase assay with GST-fusion proteins, histone H1 substrate
Format: biochemical
Design: key to Kinase assay (inhibitory effect on cdk2 activity): P=positive; N=negative
Conditions: for Kinase assay (inhibitory effect on cdk2 activity): 0.1 μg GST-fusion protein, cdk2 immunoprecipitated from NIH/3T3; for inhibitory effect on cdk2 activity / histone H1 phosphorylation in vitro: GST-fusion protein added to cdk2 immunoprecipitate from NIH/3T3
Method: Constructs preparation: A prokaryotic expression vector pGEX-2T (Stratagene Inc., La Jolla Calif.) and polymerase chain reaction (PCR) were used to generate chimeric Glutathione-S-Transferase constructs. The primers used by PCR to amplify the fragments that were subcloned in the pGEX-2T were derived from the 5′ and 3′ ends of different regions of the spacer domain of […]. The mammalian expression vector pEF6/V5-His TOPO (Invitrogen Corp, Carlsbad, Calif.) was used to generate the constructs pEF6/V5-His-spacer and pEF6/V5-His-310 that express the correspondent genes with a C-terminal V5 epitope. The spacer and the 310 fragments were PCR-amplified with the respective primers (Table 1) to generate 3′ends of the cDNAs without stop codons and were subsequently subcloned into pEF6/V5-His TOPO (Invitrogen Corp, Carlsbad, Calif.) according to the manufacturer's instructions to obtain cDNAs coding for C-terminal fusion proteins. All generated constructs were confirmed by automated sequencing. Information regarding the primers is available upon request.
GST Fusion protein preparation: XL1-Blue bacteria carrying the pGEX-2T vectors were grown to mid log phase and then induced to express protein by adding 0.25 mM of isopropyl-1-thio-β-D-galactopyranoside (IPTG, Roche Applied Science, Indianapolis, Ind.). The cultures were shaken for 4 h; bacteria were then pelleted and resuspended in NENT buffer (20 mM Tris pH 8, 100 mM NaCl, 1 mM EDTA, 0.5% NP-40). Cell suspensions were sonicated, pelleted and the supernatant collected. The remaining bacteria were then resuspended in NENT buffer plus 2% of N-Lauryl-Sarcosine, pelleted and the supernatants were collected again. The combined supernatants were incubated with Glutathione agarose (Amersham Biosciences, Piscataway, N.J.) overnight at 4° C. The agarose was then pelleted and washed three times in NENT buffer.
Kinase assays: Cell lysates from NIH/3T3 were prepared by resuspending pelleted cells in 500 μl of lysis buffer (50 mM Tris, 5 mM EDTA, 250 mM NaCl, 50 mM NaF, 0.1% Triton, 0.1 mM Na3VO4, plus protease inhibitors). An equal amount of protein for each fraction (100 μg) was immunoprecipitated with a polyclonal anti-cdk2 antibody (De Luca et al., 1997, J Biol Chem, 272, 20971-4). The complexes were pulled down with protein A-Sepharose and washed three times with lysis buffer and twice with lysis buffer containing 400 mM NaCl. The complexes were equilibrated in kinase assay buffer (20 mM HEPES pH 7.4, 10 mM MgAc, […], 1 mM DTT). In order to detect the in vitro inhibition of cdk2 activity, each sample was incubated with an equal amount (0.1 μg) of each pGEX-2T fusion protein, in a final volume of 20 μl of kinase buffer, using 5 μCi/sample of γ-ATP (Amersham Biosciences, Piscataway, N.J.) and 2 μg of Histone H1 for 30 minutes at 30° C. Kinase assays were repeated at least three times, giving an inter assay standard deviation within 10% after normalization for protein amount. In order to evaluate the in vivo inhibition of cdk2 activity, cdk2 was immunoprecipitated, as described above, from NIH/3T3 cells transiently transfected with 5 μg of pEF6/V5-spacer, pEF6/V5-Spa310 or the vector alone as a control. The immunocomplexes were split in two tubes. A half of each sample was assayed for cdk2 activity in a final volume of 20 μl of kinase buffer with 5 μCi/sample of γ-ATP and 2 μg of Histone H1 for 30 min. at 30° C.; the second one was tested in western blot analysis to confirm that all the samples contained the amount of cdk2 immunoprecipitated. Briefly the samples were separated into 12% SDS polyacrylamide gels (SDS-PAGE), and then transferred into a nitrocellulose membrane (Schleicher & Schuell, Germany). The membrane was blocked with 5% non-fat dry milk in 1×TBST and incubated with the polyclonal anti-cdk2 antibody described above. […]

| Kinase assay (inhibitory effect on cdk2 activity) | Molecule | inhibitory effect on cdk2 activity / histone H1 phosphorylation in vitro |
| --- | --- | --- |
| P | Spa310: pRb2/p130 amino acids 641-679 (39 amino acids long), SEQ ID NO:3; LTPRRVTEVRADTGGLGRSITSPTTLYDRYSSPPASTTR (listed as Homo sapiens) | able to maintain the specific inhibitory ability; also recorded: strongly and similarly inhibited cdk2 activity |
| P | Spacer: full-length pRb2/p130 spacer domain, amino acids 616-828 (SEQ ID NO:20) (protein, listed as Homo sapiens) VPTCEEVMPPQNLERADEICIAGSPLTPRRVTEVRADTGGLGRSITSPTTLYDRYSSPPASTTRRRLFVENDSPSDGGTPGRMPPQPLVNAVPVQNVSGETVSVTPVPGQTLVTMATATVTANNGQTVTIPVQGIANENGGITFFPVQVNVGGQAQAVTGSIQPLSAQALAGSLSSQQVTGTTLQVPGQVAIQQISPGGQQQKQGQSVTSSSN | strongly and similarly inhibited cdk2 activity |
